{
  "source": "patent US20070173478A1",
  "about": "“Compositions for the enhanced treatment of depression” (WWK TRUST, priority 2003, published 2007)",
  "test_system": "chronic endogenous depression",
  "test": "Case #1: patient with chronic endogenous depression",
  "format": "in vivo, human",
  "settings": "person",
  "data": [
    {"smiles": "CNCCC(Oc1ccc(C(F)(F)F)cc1)c1ccccc1", "note": "(stereo not drawn) [fluoxetine]", "values": [
      {"measurement": "antidepressant effect of fluoxetine alone", "setting": "30 mg fluoxetine once daily, before the combination", "result": "requiring increasing doses to sustain antidepressant effects"}
    ]},
    {"smiles": "CN(C)CC/C=C1\\c2ccccc2CSc2ccccc21", "note": "[prothiaden]", "values": [
      {"measurement": "effect of previous treatment", "setting": "previous treatment", "result": "relatively ineffective"},
      {"measurement": "side effects of previous treatment", "setting": "previous treatment", "result": "complained of side effects"}
    ]}
  ]
}
